Measurements as given in US20220056419A1, “IN VITRO MODEL OF LIVER STEATOSIS AND FIBROSING NON-ALCOHOLIC STEATOHEPATITIS” (GENFIT, priority 2018, published 2022).
Entries after “also recorded” stand apart in the source; their conditions may differ.

Columns and labels:
[1] = test system: 3D Huh7 spheroids; test: Steatosis model: AdipoRed lipid quantification in 3D Huh7 spheroids induced with first culture medium; type: cell-based, human; conditions: 3D liver microtissue steatosis model, 6 days of treatment with test compound
Protocol: The Huh 7 human hepatocellular carcinoma cell line was seeded in William's E medium (Gibco) with 10% FBS (Gibco) at a density of 3000 cells/well in 384 well plate ULA (Corning). After a few days, spheroids are formed and cells are grown in serum-free culture medium.
William's E medium was supplemented with FFAs (oleate+palmitate, 400 μM total FFA concentration) fructose 15 mM (Sigma) and soluble cholesterol […] (Sigma). Huh7 spheroids were treated for 3 days with this medium with or without a test compound and the treatment was renewed once with or without a test compound.
Steatosis was then measured after 6 days of treatment with or without the test compound.
Lipid Staining and Quantification Intracellular lipid accumulation was quantified using the AdipoRed™ Adipogenesis Assay Reagent (Lonza). Cells were visualized under epifluorescence microscope and then subjected to fluorescence assay quantification at λexc: 485 nm and λem: 572 nm, using plate reader (TECAN).

[2] = test system: 3D human liver microtissues; test: Fibrosing NASH model: COL1A1 (pro-collagen I) ELISA in medium 1+medium 2-treated 3D human liver microtissues; type: cell-based; conditions: single agent, medium 1+medium 2-treated 3D liver microtissues, FIG. 9A
Source text: Cryopreserved primary human hepatocytes (IPHH_11) and cryopreserved primary human non parenchymal cells (NPCs containing endothelial and Kupffer cells) (IPHN_11) were obtained from BioIVT. The cryopreserved human primary hepatic stellate cells (hHSC) were obtained from Innoprot. 3D human liver microtissues were produced with the IPHH_11, the IPHN_11 and the hHSC in a 96-well hanging-drop culture platform (Gravity PLUS™, InSphero AG). After microtissues formation, they were transferred into a microtissue-specific 96-well culture and assay platform (Gravity TRAP™, InSphero AG). Further maintenance and compound treatments were performed in Gravity TRAP™ plates. After tissue formation, the 3D microtissues were maintained in William's E medium (Gibco) supplemented with Insulin (Sigma), Transferrin (Sigma), Selenium (Sigma), Glutamine (Gibco), Dexamethasone (Sigma), HEPES (Sigma), Gentamicin (Gibco) and Amphotericin B (Sigma) at 37° C. in a humidified 5% CO2 cell culture incubator for 4 days. Half of the culture medium was replenished every 3 days.
Hepatic microtissues were treated once with a couple of carbohydrates (final concentration ranging from 1 to 100 mM), a couple of free fatty acids either saturated or unsaturated with a final concentration ranging from 100μM to 1 mM and a source of cholesterol with a concentration ranging from 1 μg/mL to 1 mg/mL (medium 1). After 2 to 5 days, microtissues were treated with a couple of carbohydrates (final concentration ranging from 1 to 100 mM), a couple of free fatty acids either saturated or unsaturated with a final concentration ranging from 100 μM to 1 mM and a source of cholesterol with a concentration ranging from 1 μg/mL to 250 μg/mL, a member of the growth factor superfamily member, a member of the TNFSF with a concentration ranging from 1 ng/mL to 1 μg/mL and a sphingolipid with a concentration ranging from 1 nM to 500 nM (medium 2). This treatment lasts from 2 to 5 days.
The level of Collal, IL-8 and MCP-1 was measured using a Sandwich ELISA, according to manufacturer's instructions provided with “Elisa Pro-Collagen I α1/COLIA1”, (DuoSet ELISA, R&D, catalog N°: DY6220-05), Elisa CXCL8/IL-8 (DuoSet ELISA, R&D, catalog N°: DY208n) and Elisa CCL2/MCP-1 (DuoSet ELISA, R&D, catalog N°: DY279) kits, respectively.
For these experiments, a checkerboard matrix was generated. ELA and component (ii) stocks were serially diluted in DMSO in 2-points series in a row (ELA) and a 3-points series in a column (component (ii)) of a 96-well plate. Subsequently, the 2×3 combination matrix was generated by 1:1 mixing of all single agent concentrations.

Structure (SMILES)	antisteatotic activity (lipid content, AdipoRed signal) [1]	inhibition of COL1A1 secretion (collagen release) ([2]; high dose 1 μM)	inhibition of COL1A1 secretion (collagen release) ([2]; high dose 3 μM)	inhibition of COL1A1 secretion (collagen release) ([2]; high dose 3 μM, listed as ELA)
COc1ccccc1[C@H](Cn1c(=O)n(C(C)(C)C(=O)O)c(=O)c2c(C)c(-c3ncco3)sc21)OC1CCOCC1 [GS-0976]	antisteatotic activity	the release of collagen was affected; also recorded: inhibition of COL1A1 secretion		
O=C(c1c2ccccc2cc2ccccc12)N1CCC(N2CCC[C@@H](C(=O)N3CCOCC3)C2)CC1 [CP-640186]	antisteatotic activity		the release of collagen was affected; also recorded: inhibition of COL1A1 secretion	
CSc1ccc(C(=O)/C=C/c2cc(C)c(OC(C)(C)C(=O)O)c(C)c2)cc1 [Elafibranor]			inhibition of COL1A1 secretion	the release of collagen was affected
COc1cc(C(=O)N2CCC3(CC2)CC(=O)c2cc(-c4cncc(C(=O)O)c4)ccc2O3)cc2c1c(C)cn2C1CC1 [MK-4074]	antisteatotic activity			
